# According to patent US6849653B2, “Substituted pyrazolyl benzenesulfamide compounds for the treatment of inflammation” (Pharmacia Corporation, priority 2001, dated 2005):
# Where two headings read alike, the source gives them in different places.
# Columns and labels:
# [1] = target: T1, IKK2 (IKKβ), rhIKK2 homodimer (Homo sapiens, UniProt O14920); test: IKKβ (IKK2) Resin Enzyme Assay; assay type: biochemical; settings: read-out: IKK2 Resin IC 50
# T1 construct: made in house; host or cells: insect cells (baculovirus; SF9)
# T1 sequence (O14920 1-756): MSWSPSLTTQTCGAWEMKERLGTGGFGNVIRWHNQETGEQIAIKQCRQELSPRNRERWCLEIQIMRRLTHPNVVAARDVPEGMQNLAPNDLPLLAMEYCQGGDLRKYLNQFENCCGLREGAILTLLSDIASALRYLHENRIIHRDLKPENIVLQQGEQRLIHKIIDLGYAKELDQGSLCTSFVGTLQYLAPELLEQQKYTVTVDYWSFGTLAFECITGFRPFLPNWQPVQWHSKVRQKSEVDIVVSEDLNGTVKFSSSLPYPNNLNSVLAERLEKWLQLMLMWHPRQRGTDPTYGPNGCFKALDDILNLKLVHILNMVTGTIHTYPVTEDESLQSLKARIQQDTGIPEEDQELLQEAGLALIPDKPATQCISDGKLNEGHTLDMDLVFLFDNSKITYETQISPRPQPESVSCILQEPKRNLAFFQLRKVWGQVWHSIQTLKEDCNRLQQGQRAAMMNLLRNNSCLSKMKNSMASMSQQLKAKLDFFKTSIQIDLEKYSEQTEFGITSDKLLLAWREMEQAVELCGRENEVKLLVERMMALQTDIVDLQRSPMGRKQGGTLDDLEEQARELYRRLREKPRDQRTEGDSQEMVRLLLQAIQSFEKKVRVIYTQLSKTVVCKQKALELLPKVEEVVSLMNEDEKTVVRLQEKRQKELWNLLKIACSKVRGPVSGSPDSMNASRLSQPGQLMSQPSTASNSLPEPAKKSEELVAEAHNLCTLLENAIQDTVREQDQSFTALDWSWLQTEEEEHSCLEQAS
# Text: (§1) cDNAs of human IKK1 and IKK2 were amplified by reverse transcriptase-polymerase chain reaction from human placental RNA (Clonetech). hIKK1 was subcloned into pFastBac HTa (Life Technologies) and expressed as N-terminal His6-tagged fusion protein. The hIKK2 cDNA was amplified using a reverse oligonucleotide primer which incorporated the peptide sequence for a FLAG-epitope tag at the C-terminus of the IKK2 coding region (DYKDDDDKD). The hIKK2:FLAG cDNA was subcloned into the baculovirus vector pFastBac. The rhIKK2 ([…]) mutant was constructed in the same vector used for wild type rhIKK2 using a QuikChange™ mutagenesis kit (Stratagene). Viral stocks of each construct were used to infect insect cells grown in 40L suspension culture. […] Cell lysates were stored at −80° C. until purification of the recombinant proteins was undertaken as described below.
# Isolation of rhIKK2 Homodimer
# A 10 liter culture of baculovirus-expressing IKK2 tagged with FLAG peptide was centrifuged and the cell pellet (MOI=0.1 and I=72 hrs) was re-suspended in buffer A. These cells were microfluidized, and centrifuged at 100,000×g for 45 min. Supernatant was passed over a G-25 column equilibrated with Buffer A. Protein peak was collected and incubated with anti-FLAG affinity resin on a rotator overnight in buffer B. The resin was washed in batch with 10-15 bed volumes of buffer C. Washed resin was poured into a column and rhIKK2 homodimer was eluted using 5 bed volumes of buffer B containing FLAG peptide. 5 mM DTT, 0.1% NP-40 and BSA (concentrated to 0.1% in final amount) was added to the eluted enzyme before concentrating in using an Amicon membrane with a molecular weight cut-off of 30 kDa. Enzyme was aliquoted and stored at −80° C.
# IKKβ kinase activity was measured using a biotinylated IκBα peptide (Gly-Leu-Lys-Lys-Glu-Arg-Leu-Leu-Asp-Asp-Arg-His-Asp-Ser32-Gly-Leu-Asp-Ser36-Met-Lys-Asp-Glu-Glu) (American Peptide Co.). […] contained 5 μM biotinylated IκBα peptide, 0.1 μCi/reaction [γ-^33P] ATP (Amersham) (about 1×10^5 cpm), 1 μM ATP (Sigma), 1 mM DTT (Sigma), 2 mM MgCl2 (Sigma), 2 mM MnCl2 (Sigma), 10 mM NaF (Sigma), 25 mM Hepes (Sigma) buffer, pH 7.6 and 20 μl enzyme solution and […] inhibitor in a final volume of 50 μl. After incubation at 25° C. for 30 min, 150 μl resin (Dowex anion-exchange resin AG1X8 200-400 mesh) in 900 mM formate, pH 3.0 was added to each well to stop the reaction. Resin was allowed to settle for one hour and 50 ul of supernatant was removed to a Micolite-2 flat bottom plate (Dynex). 150 μl of scintillation fluid (Microscint 40) (Packard) was added to each well. Incorporation of [γ-^33P] ATP was measured using a Top-Count NXT (Packard).
# [2] = target: T2, rhIKK1/IKK2 heterodimer (Homo sapiens, UniProt O14920+O15111); test: IKK Heterodimer Resin Enzyme Assay; assay type: biochemical; settings: Table 1; values given as bins; read-out: HetD (IKK heterodimer assay values expressed as IC50)
# T2 construct: made in house; host or cells: insect cells (baculovirus coinfection; SF9)
# T2 sequence (O14920 1-756): T1 sequence (O14920 1-756)
# T2 sequence (O15111 1-745): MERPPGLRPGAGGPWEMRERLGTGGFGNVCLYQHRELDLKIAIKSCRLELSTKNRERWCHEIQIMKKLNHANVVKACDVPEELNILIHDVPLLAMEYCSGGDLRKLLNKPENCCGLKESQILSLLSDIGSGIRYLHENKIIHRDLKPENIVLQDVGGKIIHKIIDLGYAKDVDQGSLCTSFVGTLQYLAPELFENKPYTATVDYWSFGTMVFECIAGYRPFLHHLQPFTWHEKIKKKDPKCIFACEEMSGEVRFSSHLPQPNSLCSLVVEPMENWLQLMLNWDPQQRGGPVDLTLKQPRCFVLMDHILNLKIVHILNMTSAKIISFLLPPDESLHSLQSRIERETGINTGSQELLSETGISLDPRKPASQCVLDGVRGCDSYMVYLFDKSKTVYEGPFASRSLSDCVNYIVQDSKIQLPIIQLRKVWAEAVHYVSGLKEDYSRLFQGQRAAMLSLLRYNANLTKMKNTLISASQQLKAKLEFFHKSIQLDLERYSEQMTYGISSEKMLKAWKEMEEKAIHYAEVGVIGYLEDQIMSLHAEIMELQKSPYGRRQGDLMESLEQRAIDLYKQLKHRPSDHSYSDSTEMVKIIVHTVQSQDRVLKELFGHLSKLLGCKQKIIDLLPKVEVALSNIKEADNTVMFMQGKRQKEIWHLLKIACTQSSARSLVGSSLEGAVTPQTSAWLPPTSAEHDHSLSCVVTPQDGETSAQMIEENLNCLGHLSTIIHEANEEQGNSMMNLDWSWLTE
# Text: as §1, with “([…]).” for “(DYKDDDDKD).”
# Isolation of rhIKK1/IKK2 Heterodimer
# The heterodimer enzyme was produced by coinfection in a baculovirus system (FLAG IKK2/IKK1 His; MOI=0.1 and I=72 hrs). Infected cells were centrifuged and the cell pellet (10.0 g) was suspended in 50 ml of buffer A. The protein suspension was microfluidized and centrifuged at 100,000×g for 45 min. Imidazole was added to the supernatant to a final concentration of 10 mM. The protein was allowed to bind 25 ml of Ni-NTA resin by mixing for 2 hrs. The protein-resin slurry was poured into a 25 ml column and washed with 250 ml of buffer A containing 10 mM imidazole followed by 125 ml of buffer A containing 50 mM imidazole. Buffer A, containing 300 mM imidazole, was then used to elute the protein. A 75 ml pool was collected and NP-40 was added to a final concentration of 0.1%. […] The protein-resin slurry was then centrifuged for 5 min at 2,000 rpm. The supernatant was collected and the resin re-suspended in 100 ml of buffer C containing 0.1% NP-40. The resin was washed with 375 ml of buffer C containing 0.1% NP-40. The protein-resin was poured into a 25 ml column and the enzyme eluted using buffer B containing FLAG peptide. Enzyme fractions (100 ml) were collected and concentrated to 20 ml using an Amicon membrane with molecular weight cut-off of 30 kDa. Bovine serum albumin was added to the concentrated enzyme to final concentration of 0.1%. The enzyme was then aliquoted and stored at −80° C.
# IKK Heterodimer Resin Enzyme Assay
# Resin was allowed to settle for one hour and 50 ul of supernatant was removed to a Micolite-2 flat bottom plate (Dynex). 150 μl of scintillation fluid (Microscint 40) (Packard) was added to each well. Incorporation of [γ-^33P] ATP was measured using a Top-Count NXT (Packard).
IC50 [2] [nM],further results,SMILES
–,"IC50 ([1]; Table 4, values given as bins): ≤ 1000 nM","NC(=O)c1nn(-c2ccc3c(c2)OCO3)c2c1ccc1ccc(NC(=O)c3ccncc3Cl)cc12 [Example 58, 1-(1,3-benzodioxol-5-yl)-8-[(3-chloroisonicotinoyl)amino]-1H-benzo[g]indazole-3-carboxamide]"
–,"IC50 ([1]; Table 2, values given as bins): ≤ 1000 nM","CS(=O)(=O)c1ccc(-n2nc(C(N)=O)c3ccc4ccc(NC(=O)c5ccccc5Cl)cc4c32)cc1 [Example 37, 8-[(2-chlorobenzoyl)amino]-1-[4-(methylsulfonyl)phenyl]-1H-benzo[g]indazole-3-carboxamide]"
–,IC50 ([1]; Table 3): ≤ 1000 nM,"CS(=O)(=O)Nc1ccc2ccc3c(C(N)=O)nn(-c4ccc(F)cc4)c3c2c1 [Example 50, 1-(4-fluorophenyl)-8-[(methylsulfonyl)amino]-1H-benzo[g]indazole-3-carboxamide]"
–,"IC50 ([1]; Table 2, values given as bins): 1000 to 10000 nM","CS(=O)(=O)c1ccc(-n2nc(C(N)=O)c3ccc4ccc(NC(=O)c5ccccc5C(F)(F)F)cc4c32)cc1 [Example 39, 1-[4-(methylsulfonyl)phenyl]-8-{[2-(trifluoromethyl)benzoyl]amino}-1H-benzo[g]indazole-3-carboxamide]"
–,IC50 ([1]; Table 3): ≤ 1000 nM,"NC(=O)c1nn(-c2ccc(F)cc2)c2c1ccc1ccc(NC(=O)c3ccncc3Cl)cc12 [Example 43, 8-[(3-chloroisonicotinoyl)amino]-1-(4-fluorophenyl)-1H-benzo[g]indazole-3-carboxamide]"
1000 to 10000,–,"NC(=O)c1nn(-c2ccc(S(N)(=O)=O)cc2)c2c1ccc1ccc(NS(=O)(=O)c3cccc(Cl)c3)cc12 [Example 16, 1-[4-(aminosulfonyl)phenyl]-8-{[(3-chlorophenyl)sulfonyl]amino}-1H-benzo[g]indazole-3-carboxamide]"
≤ 1000,–,"C=CCN(CC=C)S(=O)(=O)c1ccc(-n2nc(C(N)=O)c3ccc4ccc(N)cc4c32)cc1 [Example 7, 8-amino-1-{4-[(diallylamino)sulfonyl]phenyl}-1H-benzo[g]indazole-3-carboxamide]"
≤ 1000,–,"CC(=O)Nc1ccc2ccc3c(C(N)=O)nn(-c4ccc(S(N)(=O)=O)cc4)c3c2c1 [Example 20, 8-(acetylamino)-1-[4-(aminosulfonyl)phenyl]-1H-benzo[g]indazole-3-carboxamide]"
≤ 1000,–,"Cc1ccccc1C(=O)Nc1ccc2ccc3c(C(N)=O)nn(-c4ccc(S(N)(=O)=O)cc4)c3c2c1 [Example 27, 1-[4-(aminosulfonyl)phenyl]-8-[(2-methylbenzoyl)amino]-1H-benzo[g]indazole-3-carboxamide]"
≤ 1000,–,"NC(=O)c1nn(-c2ccc(S(N)(=O)=O)cc2)c2c1ccc1ccc(NC(=O)c3ccncc3)cc12 [Example 34, 1-[4-(aminosulfonyl)phenyl]-8-(isonicotinoylamino)-1H-benzo[g]indazole-3-carboxamide]"
1000 to 10000,–,"NC(=O)c1nn(-c2ccc(S(N)(=O)=O)cc2)c2c1ccc1ccc(NS(=O)(=O)c3cccc(Br)c3)cc12 [Example 15, 1-[4-(aminosulfonyl)phenyl]-8-{[(3-bromophenyl)sulfonyl]amino}-1H-benzo[g]indazole-3-carboxamide]"
1000 to 10000,–,"NC(=O)c1nn(-c2ccc(S(N)(=O)=O)cc2)c2c1ccc1ccc(NS(=O)(=O)c3ccc(Cl)c(Cl)c3)cc12 [Example 22, 1-[4-(aminosulfonyl)phenyl]-8-{[(3,4-dichlorophenyl)sulfonyl]amino}-1H-benzo[g]indazole-3-carboxamide]"
≤ 1000,–,"NC(=O)c1nn(-c2ccc(S(N)(=O)=O)cc2)c2c1ccc1ccc(NC(=O)c3ccccc3Cl)cc12 [Example 14, 1-[4-(aminosulfonyl)phenyl]-8-[(2-chlorobenzoyl)amino]-1H-benzo[g]indazole-3-carboxamide]"
